Experimental data reported in the NIST ThermoML archive (doi:10.1021/je0499317).
Numbers after ± are expanded uncertainties.

Experiment: excess molar enthalpy (molar enthalpy of mixing); xn = mol fraction of the nth substance listed
Conditions: 298.15 K, 101.33 kPa, Liquid

CCCCCCCCCCC#N [1-decylcyanide] + CSCS(C)=O
Conditions	excess molar enthalpy [kcal/mol]
x2 = 0.02536	0.029 ± 0.000813
x2 = 0.04055	0.0463 ± 0.0011
x2 = 0.04193	0.0496 ± 0.00115
x2 = 0.07582	0.0856 ± 0.0017
x2 = 0.07724	0.0867 ± 0.00172
x2 = 0.1217	0.127 ± 0.00234
x2 = 0.1402	0.142 ± 0.00263
x2 = 0.1596	0.159 ± 0.00287
x2 = 0.1889	0.181 ± 0.00311
x2 = 0.2628	0.223 ± 0.00382
x2 = 0.2767	0.231 ± 0.00406
x2 = 0.3234	0.252 ± 0.0043
x2 = 0.4218	0.278 ± 0.00478
x2 = 0.5052	0.286 ± 0.00478
x2 = 0.77	0.237 ± 0.00406
x2 = 0.8316	0.202 ± 0.00359
x2 = 0.8694	0.17 ± 0.00311
x2 = 0.9043	0.138 ± 0.00263
x2 = 0.9095	0.132 ± 0.00239
x2 = 0.9464	0.0864 ± 0.00172
x2 = 0.9933	0.0131 ± 0.000574

CCCCCCCCCCC#N [1-decylcyanide] + C[S+](C)[O-]
Conditions	excess molar enthalpy [kcal/mol]
x2 = 0.02797	0.0287 ± 0.000813
x2 = 0.05445	0.0548 ± 0.00122
x2 = 0.09234	0.0936 ± 0.00182
x2 = 0.1207	0.119 ± 0.00222
x2 = 0.1811	0.175 ± 0.00311
x2 = 0.1853	0.178 ± 0.00311
x2 = 0.2855	0.249 ± 0.0043
x2 = 0.3924	0.296 ± 0.00502
x2 = 0.5139	0.322 ± 0.00526
x2 = 0.5302	0.322 ± 0.00526
x2 = 0.6423	0.322 ± 0.00526
x2 = 0.7161	0.308 ± 0.00502
x2 = 0.8292	0.254 ± 0.0043
x2 = 0.8917	0.195 ± 0.00335
x2 = 0.9298	0.145 ± 0.00263
x2 = 0.9772	0.0547 ± 0.00122
x2 = 0.98	0.0491 ± 0.00112
x2 = 0.9927	0.0191 ± 0.000669

CCCCCCCCC#N [nonanenitrile] + C[S+](C)[O-]
Conditions	excess molar enthalpy [kcal/mol]
x2 = 0.05896	0.0512 ± 0.00117
x2 = 0.07322	0.0623 ± 0.00134
x2 = 0.09784	0.0826 ± 0.00165
x2 = 0.1285	0.107 ± 0.00203
x2 = 0.1721	0.141 ± 0.00263
x2 = 0.1898	0.153 ± 0.00263
x2 = 0.2365	0.183 ± 0.00311
x2 = 0.2408	0.187 ± 0.00335
x2 = 0.2698	0.204 ± 0.00359
x2 = 0.2836	0.211 ± 0.00359
x2 = 0.3841	0.252 ± 0.0043
x2 = 0.4577	0.272 ± 0.00454
x2 = 0.5425	0.285 ± 0.00478
x2 = 0.5442	0.285 ± 0.00478
x2 = 0.5569	0.285 ± 0.00478
x2 = 0.703	0.271 ± 0.00454
x2 = 0.7734	0.245 ± 0.00406
x2 = 0.8496	0.197 ± 0.00335
x2 = 0.8991	0.15 ± 0.00263
x2 = 0.939	0.103 ± 0.00196
x2 = 0.9712	0.0531 ± 0.0012
x2 = 0.9917	0.017 ± 0.000621

CCCCCCCC#N [octanenitrile] + CSCS(C)=O
Conditions	excess molar enthalpy [kcal/mol]
x2 = 0.02232	0.0208 ± 0.000693
x2 = 0.06732	0.064 ± 0.00136
x2 = 0.1083	0.0967 ± 0.00186
x2 = 0.16	0.133 ± 0.00239
x2 = 0.2232	0.17 ± 0.00311
x2 = 0.3476	0.216 ± 0.00382
x2 = 0.5207	0.237 ± 0.00406
x2 = 0.6218	0.228 ± 0.00382
x2 = 0.7086	0.206 ± 0.00359
x2 = 0.7769	0.177 ± 0.00311
x2 = 0.869	0.122 ± 0.00225
x2 = 0.9129	0.0878 ± 0.00172
x2 = 0.9266	0.0774 ± 0.00158
x2 = 0.9548	0.0497 ± 0.00115
x2 = 0.9879	0.0154 ± 0.000621
